Laboratory results reported in patent US6410575B1, “Viral treatment” (The Procter & Gamble Company, priority 1999, dated 2002).
In brackets after ≈: the same amount, converted by molar mass. Several values for one entry are separate records, joined by “and”; a condition that tells them apart may be missing. Equal values may be shown once. Read-outs that look alike come from different tables or passages of the source.

How the values were obtained:
[1] = tested on: hepatitis B; assay: In vitro virus production test of hepatitis B, HEPG2 2.2.15; type: cell-based; details: for IC50: Hepatitis B virus, HepG2 2.2.15, hepatitis B, read-out: IC50
[2] = tested on: U937KN1272, a protease resistant strain; assay: Long term in vitro study, U937KN1272; type: cell-based, HIV
Method: Toxicity quantification involves the XTT-based evaluation. Assays were designed to characterize the long term effects of the compounds on virus production and to characterize the longer term effects of the compounds on virus production from chronically HIV infected cells.
CEM-SS cells chronically infected with HIV isolate, for example SKI (CEM-SKI) are cultured in RPMI1640 tissue culture medium supplemented with 10% fetal bovine serum and antibiotics. […] CEM-SKI or other infected cells with no added drug are used as the control cells.
Cells are allowed to grow to a density of approximately 1×10^6 cells/ml and are then passaged at a 1:10 dilution. […] The drug concentration in the flask is then increased two-fold and the cells maintained as above.
The cell populations contain integrated copies of the HIV genome and constitutively produce HIV at relatively high levels or are latently infected and only produce virus after stimulation with phorbol esters, tumor necrosis factor or IL6(U1 and ACH2). Reductions in virus products were observed when quantifying supernatant reverse transcriptase activity.
Similar results are obtained with U937KN1272, a protease resistant strain, reported below.

[3] = tested on: vero cells; assay: Herpes simplex testing, toxicity (TC50); design: unit not given beside the values

## NC(=S)Nc1nsc(-c2ccccc2)n1
[1]; 0.64 μg/ml
  % virus control: 55.1%
  DNA Copy Number (per 3 μl), mean: 145.8 per 3 μl
  DNA Copy Number (per 3 μl), sample: 131.5 per 3 μl and 155.2 per 3 μl and 150.8 per 3 μl
[1]; 2 μg/ml
  % virus control: 31.9%
  DNA Copy Number (per 3 μl), mean: 84.3 per 3 μl
[1]; 6.4 μg/ml
  % virus control: 36.1%
  DNA Copy Number (per 3 μl), mean: 95.4 per 3 μl
[1]; 20 μg/ml
  % virus control: 15.8%
  DNA Copy Number (per 3 μl), mean: 41.9 per 3 μl
[1]; 64 μg/ml
  % virus control: 33.1%
  DNA Copy Number (per 3 μl), mean: 87.5 per 3 μl
  DNA Copy Number (per 3 μl), sample: 98.6 per 3 μl and 76.0 per 3 μl and 87.8 per 3 μl
[1]; 200 μg/ml
  % virus control: 22.7%
  DNA Copy Number (per 3 μl), mean: 60.0 per 3 μl
[1]; HEPG2 2.2.15, replicate experiment
  IC50: 0.76 µg/mL (≈ 3.22 µM)
[1]; HEPG2 2.2.15
  IC50: 0.94 µg/mL (≈ 3.98 µM)
[1]; hepatitis B, HEPG2 2.2.15
  therapeutic index or TI: 212.8
[1]; hepatitis B, HEPG2 2.2.15, replicate experiment
  TI: 263.2
[2]; U937KN1272, 7 μg/ml, day 4
  virus production (supernatant reverse transcriptase activity): 119839
[2]; U937KN1272, 7 μg/ml, day 11
  virus production (supernatant reverse transcriptase activity): 78089
[2]; U937KN1272, 7 μg/ml, day 18
  virus production (supernatant reverse transcriptase activity): 74773
[2]; U937KN1272, 7 μg/ml, day 25
  virus production (supernatant reverse transcriptase activity): 78997
[2]; U937KN1272, 7 μg/ml, day 32
  virus production (supernatant reverse transcriptase activity): 31156
[2]; U937KN1272, 7 μg/ml, day 39
  virus production (supernatant reverse transcriptase activity): 41326
[2]; U937KN1272, 7 μg/ml, day 46
  virus production (supernatant reverse transcriptase activity): 31024
[2]; U937KN1272, 7 μg/ml, day 53
  virus production (supernatant reverse transcriptase activity): 31209
[2]; U937KN1272, 15 μg/ml, day 4
  virus production (supernatant reverse transcriptase activity): 103341
[2]; U937KN1272, 15 μg/ml, day 11
  virus production (supernatant reverse transcriptase activity): 80161
[2]; U937KN1272, 15 μg/ml, day 18
  virus production (supernatant reverse transcriptase activity): 73939
[2]; U937KN1272, 15 μg/ml, day 25
  virus production (supernatant reverse transcriptase activity): 74262
[2]; U937KN1272, 15 μg/ml, day 32
  virus production (supernatant reverse transcriptase activity): 26305
[2]; U937KN1272, 15 μg/ml, day 39
  virus production (supernatant reverse transcriptase activity): 28635
[2]; U937KN1272, 15 μg/ml, day 46
  virus production (supernatant reverse transcriptase activity): 18073
[2]; U937KN1272, 15 μg/ml, day 53
  virus production (supernatant reverse transcriptase activity): 22110
[2]; U937KN1272, 30 μg/ml, day 4
  virus production (supernatant reverse transcriptase activity): 114070
[2]; U937KN1272, 30 μg/ml, day 11
  virus production (supernatant reverse transcriptase activity): 89087
[2]; U937KN1272, 30 μg/ml, day 18
  virus production (supernatant reverse transcriptase activity): 72398
[2]; U937KN1272, 30 μg/ml, day 25
  virus production (supernatant reverse transcriptase activity): 38006
[2]; U937KN1272, 30 μg/ml, day 32
  virus production (supernatant reverse transcriptase activity): 6908
[2]; U937KN1272, 30 μg/ml, day 39
  virus production (supernatant reverse transcriptase activity): 14779
[2]; U937KN1272, 30 μg/ml, day 46
  virus production (supernatant reverse transcriptase activity): 5663
[2]; U937KN1272, 30 μg/ml, day 53
  virus production (supernatant reverse transcriptase activity): 10534
[3]
  TC50: > 200
